Laboratory results reported in patent publication US6908935B2, “Calcium receptor modulating agents” (Amgen Inc., priority 2002, dated 2005).

Target: T1, human parathyroid cell Ca^2+ receptor (hPCaR) (Homo sapiens, UniProt P41180)
T1 construct: expressed in transfected cells
T1 sequence (P41180 20-1078): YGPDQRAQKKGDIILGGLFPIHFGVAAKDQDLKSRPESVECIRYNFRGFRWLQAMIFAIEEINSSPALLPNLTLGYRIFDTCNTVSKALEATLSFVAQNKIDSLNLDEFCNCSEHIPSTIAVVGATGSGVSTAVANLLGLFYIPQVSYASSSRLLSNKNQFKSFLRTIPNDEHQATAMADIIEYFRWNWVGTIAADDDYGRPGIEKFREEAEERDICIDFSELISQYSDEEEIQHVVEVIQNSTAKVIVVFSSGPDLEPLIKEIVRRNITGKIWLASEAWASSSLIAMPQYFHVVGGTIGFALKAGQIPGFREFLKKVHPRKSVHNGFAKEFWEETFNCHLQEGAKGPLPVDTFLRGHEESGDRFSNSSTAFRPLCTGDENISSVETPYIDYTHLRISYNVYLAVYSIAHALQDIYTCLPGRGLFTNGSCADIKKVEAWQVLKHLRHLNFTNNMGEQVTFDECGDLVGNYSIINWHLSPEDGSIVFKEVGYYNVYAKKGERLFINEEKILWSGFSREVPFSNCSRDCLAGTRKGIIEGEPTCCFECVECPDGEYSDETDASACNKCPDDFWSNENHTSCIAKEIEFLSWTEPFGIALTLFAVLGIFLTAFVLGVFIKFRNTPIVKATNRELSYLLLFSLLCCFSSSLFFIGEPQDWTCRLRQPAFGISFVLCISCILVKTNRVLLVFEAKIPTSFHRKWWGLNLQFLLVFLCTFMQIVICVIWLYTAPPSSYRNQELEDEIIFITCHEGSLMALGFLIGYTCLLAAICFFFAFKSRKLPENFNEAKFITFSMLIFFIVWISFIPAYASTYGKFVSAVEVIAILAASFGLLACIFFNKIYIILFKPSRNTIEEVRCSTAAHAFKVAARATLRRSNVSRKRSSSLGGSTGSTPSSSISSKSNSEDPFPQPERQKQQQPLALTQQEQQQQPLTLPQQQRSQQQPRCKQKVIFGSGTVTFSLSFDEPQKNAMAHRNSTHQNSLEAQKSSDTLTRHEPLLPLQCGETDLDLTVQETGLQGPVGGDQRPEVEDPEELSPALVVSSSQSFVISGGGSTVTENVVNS
Assay: [Ca2+]i measurement with fluo-3 in HEK 293 4.0-7 cells stably transfected with hPCaR
Format: cell-based
Conditions: fluo-3 fluorescence (485/530 nm), effect on [Ca^2+]i
Method in brief: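 HEK 293 cells stably expressing human parathyroid Ca2+ receptor (clone 4.0-7), loaded with 2 μM fluo-3 AM for 30 min at 37 °C in parathyroid cell buffer (pH 7.45) with 1 mM CaCl2 and 0.5% BSA. After compound addition, intracellular Ca2+ followed by fluorescence at 485 nm excitation/530 nm emission.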

| Structure (SMILES) | EC50 [µM] |
| --- | --- |
| COc1cccc([C@@H](C)NCc2cccc(-c3ccc(C)nc3)c2)c1 [(1R)-1-(3-(methyloxy)phenyl)-N-((3-(6-methyl-3yridinyl)phenyl)methyl)ethanamine] | ≤ 10 |
| C[C@@H](NCc1ccc(Cl)c(-c2ccc(OCC(F)(F)F)nc2)c1)c1cccc2ccccc12 [(1R)-N-((4-chloro-3-(6-((2,2,2-trifluoroethyl)oxy)-3-pyridinyl)phenyl)methyl)-1-(1-naphthalenyl)ethanamine] | ≤ 10 |
| CCOC(=O)N1CC=C(c2cc(CN[C@H](C)c3cccc4ccccc34)ccc2OC)CC1 [ethyl 4-(2-(methyloxy)-5-((((1R)-1-(1-naphthalenyl)ethyl)amino)methyl)phenyl)-3,6-dihydro-1(2H)-pyridinecarboxylate] | ≤ 10 |
| COc1cccc([C@@H](C)NCc2ccc(OC)c(-c3cncnc3)c2)c1 [(1R)-1-(3-(methyloxy)phenyl)-N-((4-(methyloxy)-3-(5-pyrimidinyl)phenyl)methyl)ethanamine] | ≤ 10 |
| COc1ccc(CN[C@H](C)c2ccccc2)cc1-c1ccc2ocnc2c1 [Example 264, (1R)-N-((3-(1,3-benzoxazol-5-yl)-4-(methyloxy)phenyl)methyl)-1phenylethanamine] | ≤ 10 |
| COc1ccc(CN[C@H](C)c2cccc3ccccc23)cc1-c1coc(C)n1 [(1R)-N-((3-(2-methyl-1,3-oxazol-4-yl)-4-(methyloxy)phenyl)methyl)-1-(1-naphthalenyl)ethanamine] | ≤ 10 |
| COc1ccc(CNC(C)c2cccc(Br)c2)cc1-c1ccc(C(F)(F)F)cc1 (stereo not drawn) [1-(3-bromophenyl)-N-((6-(methyloxy)-4′-(trifluoromethyl)-1,1′-biphenyl-3-yl)methyl)ethanamine] | ≤ 10 |
| COc1ccc([C@@H](C)NCc2ccc(F)c(-c3ccc(F)cc3)c2)cc1 [(1R)-N-((4′,6-difluoro-1,1′-biphenyl-3-yl)methyl)-1-(4-(methyloxy)phenyl)ethanamine] | ≤ 10 |
| COc1ccc([C@@H](C)NCc2ccc(OC)c(-c3cncnc3)c2)cc1 [(1R)-1-(4-(methyloxy)phenyl)-N-((4-(methyloxy)-3-(5-pyrimidinyl)phenyl)methyl)ethanamine] | ≤ 10 |
| COc1ccc(CN[C@H](C)c2ccccc2)cc1-c1ncccn1 [(1R)-N-((4-(methyloxy)-3-(2-pyrimidinyl)phenyl)methyl)-1-phenylethanamine] | ≤ 10 |
| Cc1ccc(-c2cccc(CN[C@H](C)c3ccccc3)c2)cn1 [(1R)-N-((3-(6-methyl-3-pyridinyl)phenyl)methyl)-1-phenylethanamine] | ≤ 10 |
| COc1cccc([C@@H](C)NCc2cccc(-c3cnccn3)c2)c1 [(1R)-1-(3-(methyloxy)phenyl)-N-((3-(2-pyrazinyl)phenyl)methyl)ethanamine] | ≤ 10 |
| COc1ccc(CN[C@H](C)c2ccccc2)cc1-c1ccnc(Cl)c1 [(1R)-N-(3-(2-chloropyrid-4-yl)-4-methoxyphenyl)methyl-N-1-phenylethylamine] | ≤ 10 |
| COc1ccc(-c2cc(CN[C@H](C)c3ccccc3)ccc2F)cc1 [Example 465, (1R)-N-((6-fluoro-4′-(methyloxy)-1,1′-biphenyl-3-yl)methyl)-1-phenylethanamine] | ≤ 10 |
| COc1ccc(CNC(C)c2cccc(OC(F)(F)F)c2)cc1-c1ccc(C(F)(F)F)cc1 (stereo not drawn) [N-((6-(methyloxy)-4′-(trifluoromethyl)-1,1′-biphenyl-3-yl)methyl)-1-(3-((trifluoromethyl)oxy)phenyl)ethanamine] | ≤ 10 |
| COc1cccc([C@@H](C)NCc2ccc(OC(F)F)c(-c3cccnc3)c2)c1 [(1R)-N-((4-((difluoromethyl)oxy)-3-(3-pyridinyl)phenyl)methyl)-1-(3-(methyloxy)phenyl)ethanamine] | ≤ 10 |
| COc1ccc(CN[C@H](C)c2cccc3ccccc23)cc1-c1ccc2ncccc2c1 [(1R)-N-((4-(methyloxy)-3-(6-quinolinyl)phenyl)methyl)-1-(1-naphthalenyl)ethanamine] | ≤ 10 |
| COc1ccc(CN[C@H](C)c2ccccc2)cc1-c1csc(N)n1 [4-(2-(methyloxy)-5-((((1R)-1-phenylethyl)amino)methyl)phenyl)-1,3-thiazol-2-amine] | ≤ 10 |

| Structure (SMILES) | EC50 [µM] |
| --- | --- |
| COc1cccc([C@@H](C)NCc2ccc(OC)c(-c3ccc(C(=O)O)o3)c2)c1 [5-(2-(methyloxy)-5-((((1R)-1-(3-(methyloxy)phenyl)ethyl)amino)methyl)phenyl)-2-furancarboxylic acid] | ≤ 10 |
| COc1ccc(CN[C@H](C)c2ccccc2)cc1-c1ccc2ccccc2c1 [(1R)-N-((4-(methyloxy)-3-(2-naphthalenyl)phenyl)methyl)-1-phenylethanamine] | ≤ 10 |
| C[C@@H](NCc1cccc(-c2ccccn2)c1)c1ccc2ccccc2c1 [(1R)-1-(2-naphthalenyl)-N-((3-(2-pyridinyl)phenyl)methyl)ethanamine] | ≤ 10 |
| C[C@@H](NCc1cccc(-c2ccccn2)c1)c1cccc2ccccc12 [(1R)-1-(1-naphthalenyl)-N-((3-(2-pyridinyl)phenyl)methyl)ethanamine] | ≤ 10 |
| COc1ccc(CN[C@H](C)c2ccccc2)cc1-c1ccc(C(F)(F)F)nc1 [(1R)-N-((4-(methyloxy)-3-(6-(trifluoromethyl)-3-pyridinyl)phenyl)methyl)-1-phenylethanamine] | ≤ 10 |
| COc1ccc(CN[C@H](C)c2ccccc2)cc1-c1cnc(OCC(F)(F)F)nc1 [(1R)-N-((4-(methyloxy)-3-(2-((2,2,2-trifluoroethyl)oxy)-5-pyrimidinyl)phenyl)methyl)-1-phenylethanamine] | ≤ 10 |
| COc1cccc([C@@H](C)NCc2cccc(-c3ccc(OC)nn3)c2)c1 [(1R)-1-(3-(methyloxy)phenyl)-N-((3-(6-(methyloxy)-3-pyridazinyl)phenyl)methyl)ethanamine] | ≤ 10 |
| COc1ccc(CN[C@H](C)c2cccc3ccccc23)cc1-c1ccsc1 [(1R)-N-((4-(methyloxy)-3-(3-thienyl)phenyl)methyl)-1-(1-naphthalenyl)ethanamine] | ≤ 10 |
| COc1ccc(-c2cc(CN[C@H](C)c3ccc(OC)cc3)ccc2F)cc1 [(1R)-N-((6-fluoro-4′-(methyloxy)-1,1′-biphenyl-3-yl)methyl)-1-(4-(methyloxy)phenyl)ethanamine] | ≤ 10 |
| COc1ccc(CN[C@H](C)c2ccc3ccccc3c2)cc1-c1nccs1 [(1R)-N-((4-(methyloxy)-3-(1,3-thiazol-2-yl)phenyl)methyl)-1-(2-naphthalenyl)ethanamine] | ≤ 10 |
| COc1cccc([C@@H](C)NCc2ccc(OC)c(-c3ccc4ncccc4c3)c2)c1 [(1R)-1-(3-(methyloxy)phenyl)-N-((4-(methyloxy)-3-(6-quinolinyl)phenyl)methyl)ethanamine] | ≤ 10 |
| COc1ccc(CN[C@H](C)c2ccccc2)cc1-c1cccnc1OCC1CCCO1 (stereo partly drawn) [(1R)-N-((4-(methyloxy)-3-(2-((tetrahydro-2-furanylmethyl)oxy)-3-pyridinyl)phenyl)methyl)-1-phenylethanamine] | ≤ 10 |
| COc1ccc(CN[C@H](C)c2ccccc2)cc1-c1cccs1 [(1R)-N-((4-(methyloxy)-3-(2-thienyl)phenyl)methyl)-1-phenylethanamine] | ≤ 10 |
| COc1ccc([C@@H](C)NCc2cccc(-c3ccccn3)c2)cc1 [(1R)-1-(4-(methyloxy)phenyl)-N-((3-(2-pyridinyl)phenyl)methyl)ethanamine] | ≤ 10 |
| C[C@@H](NCc1cccc(-c2cncc(C(N)=O)c2)c1)c1ccc2ccccc2c1 [Example 461, 5-(3-((((1R)-1-(2-naphthalenyl)ethyl)amino)methyl)phenyl)-3-pyridinecarboxamide] | ≤ 10 |
| COc1ccc([C@@H](C)NCc2ccc(OC)c(-c3ccsc3)c2)cc1 [(1R)-1-(4-(methyloxy)phenyl)-N-((4-(methyloxy)-3-(3-thienyl)phenyl)methyl)ethanamine] | ≤ 10 |
| COc1cccc([C@@H](C)NCc2ccc(OC)c(-c3ccc(C(F)(F)F)nc3)c2)c1 [(1R)-1-(3-(methyloxy)phenyl)-N-((4-(methyloxy)-3-(6-(trifluoromethyl)-3-pyridinyl)phenyl)methyl)ethanamine] | ≤ 10 |
| COc1ccc(CN[C@H](C)c2ccccc2)cc1N1CCCC1 [(1R)-N-((4-(methyloxy)-3-(1-pyrrolidinyl)phenyl)methyl)-1-phenylethanamine] | ≤ 10 |
